Experimental findings from patent US10364226B2, “Pyridazinone compounds and uses thereof” (priority 2013, dated 2019) are described below.

pEC50, pIC50: −log10 of the molar value. Some results are limits rather than exact numbers.

Experiment [1] has as its system Influenza strain A549 A/WSN/33 (H1N1). Briefly: Influenza Antiviral Assay. The class given is cell-based, Influenza A virus. The following applies: Influenza A virus, A549, 20 h, neuraminidase fluorescence readout, read-out: % Inhibition.
For a further experiment, the target named is EN PA (Influenza A virus, UniProt P15659). Briefly: EN PA FRET Inhibition Assay. In kind it is biochemical. The following applies: read-out: Potency.

Consider `Cc1cn(C2(Cn3cc(O)c(=O)c(C(=O)NCC(C)(C)CN)n3)CCCC2)c2ncccc12` [Compound 870], for which the pEC50 in experiment [1] is 4.00 to 4.70. Moreover, the pIC50 on EN PA was more than 7.00.

On to `CNC(=O)c1nn(CC2(c3cccc4[nH]ncc34)CCCC2)cc(O)c1=O` [Compound 871], for which the pEC50 in experiment [1] is less than 4.00. Moreover, the pIC50 on EN PA was more than 7.00.

On to `CNC(=O)c1nn(CC2(n3ccc4cc(C)cnc43)CCCC2)cc(O)c1=O` [Compound 872], for which, in experiment [1], the pEC50 was more than 4.70. Moreover, the pIC50 at EN PA was more than 7.00.

`O=C1NCCCCCOc2ccc(cc2)C2(CCCC2)Cn2cc(O)c(=O)c1n2` [Compound 873]: in experiment [1], the pEC50 is less than 4.00. In addition, the pIC50 at EN PA was 6.00 to 7.00.

As to `CCOC(=O)[C@H]1[C@@H]2CC(Cn3cc(O)c(=O)c(C(=O)NC)n3)(n3cc(C)c4cccnc43)C[C@@H]21` (stereo partly shown) [Compound 874], the pEC50 in experiment [1] is less than 4.00. In addition, the pIC50 on EN PA was 6.00 to 7.00.

As to `C#Cc1cn(C2(Cn3cc(O)c(=O)c(C(=O)NC)n3)CCCC2)c2ncc(C)cc12` [Compound 875], the pEC50 in experiment [1] is more than 4.70. Further, the pIC50 on EN PA was more than 7.00.

For `Cc1cn(C2(Cn3cc(O)c(=O)c(C(=O)NCCNC(=O)OC(C)(C)C)n3)CCCC2)c2ncccc12` [Compound 876], the pEC50 in experiment [1] is more than 4.70. The pIC50 at EN PA is more than 7.00.

For the compound `Cc1cn(C2(Cn3cc(O)c(=O)c(C(=O)N4CCOCC4)n3)CCCC2)c2ncccc12` [Compound 877], the pEC50 in experiment [1] is less than 4.00. Moreover, the pIC50 at EN PA was 6.00 to 7.00.

Turning to `CNC(=O)c1nn(CC2(c3ccc4cc(C)ccc4c3)CCCC2)cc(O)c1=O` [Compound 879], in experiment [1], the pEC50 is more than 4.70. The pIC50 at EN PA was more than 7.00.

On to `CNC(=O)c1nn(CC2(n3cc(C(=O)NC)c4cccnc43)CCCC2)cc(O)c1=O` [Compound 880], for which the pEC50 in experiment [1] was less than 4.00. Also, the pIC50 at EN PA was more than 7.00.

As to `CNC(=O)c1nn(CC2(c3cccc4c3cnn4C)CCCC2)cc(O)c1=O` [Compound 881], in experiment [1], the pEC50 was more than 4.70. Besides, the pIC50 at EN PA is more than 7.00.

As for `CNC(=O)c1nn(CC2(c3cccc4nn(C)cc34)CCCC2)cc(O)c1=O` [Compound 882], the pEC50 in experiment [1] was more than 4.70. The pIC50 on EN PA was more than 7.00.

As to `CNC(=O)c1nn(CC2(n3cc(C(N)=O)c4cccnc43)CCCC2)cc(O)c1=O` [Compound 883], in experiment [1], the pEC50 is less than 4.00. The pIC50 on EN PA was more than 7.00.

In the case of `CNC(=O)c1nn(CC2(N3c4ccccc4C=Cc4ccccc43)CCCC2)cc(O)c1=O` [Compound 884], the pEC50 in experiment [1] was more than 4.70. Also, the pIC50 on EN PA was more than 7.00.

Take `CNC(=O)c1nn(CC2(n3cc(C)c4cccnc43)C[C@@H]3[C@@H](CO)[C@@H]3C2)cc(O)c1=O` (stereo partly shown) [Compound 885]: the pEC50 in experiment [1] is less than 4.00. For the same compound, the pIC50 at EN PA was 6.00 to 7.00.

`CNC(=O)c1nn(CC2(n3ccc4cc(OC)cnc43)CCCC2)cc(O)c1=O` [Compound 886]: the pEC50 in experiment [1] is more than 4.70. For the same compound, at EN PA, the pIC50 was more than 7.00.

For `CNC(=O)c1nn(CC2(n3cc(Cl)c4cc(Cl)cnc43)CCCC2)cc(O)c1=O` [Compound 887], the pEC50 in experiment [1] was more than 4.70. Further, the pIC50 at EN PA was more than 7.00.

Turning to `CNC(=O)c1nn(CC2(c3cc(C)c4cccnc4c3)CCCC2)cc(O)c1=O` [Compound 888], the pEC50 in experiment [1] was more than 4.70. Besides, the pIC50 at EN PA is more than 7.00.

On to `CNC(=O)c1nn(CC2(c3cc(C)cc4ncccc34)CCCC2)cc(O)c1=O` [Compound 889], for which, in experiment [1], the pEC50 was more than 4.70. Also, the pIC50 on EN PA was more than 7.00.

In the case of `CNC(=O)c1nn(CC2(c3ccc4cc(C)cnc4c3)CCCC2)cc(O)c1=O` [Compound 890], the pEC50 in experiment [1] is more than 4.70. Besides, at EN PA, the pIC50 was more than 7.00.

Take `CNC(=O)c1nn(CC2(n3c4c(c5ccccc53)CCC4)CCCC2)cc(O)c1=O` [Compound 891]: in experiment [1], the pEC50 was more than 4.70. In addition, at EN PA, the pIC50 is more than 7.00.

As to `CNC(=O)c1nn(CC2(n3cc(OC)c4cccnc43)CCCC2)cc(O)c1=O` [Compound 892], the pEC50 in experiment [1] is more than 4.70. Further, the pIC50 at EN PA was more than 7.00.

Turning to `CNC(=O)c1nn(CC2(c3cc4ccccc4cc3Cl)CCCC2)cc(O)c1=O` [Compound 893], in experiment [1], the pEC50 was more than 4.70. For the same compound, at EN PA, the pIC50 was more than 7.00.

Turning to `CNC(=O)c1nn(CC2(n3cc(C(C)=O)c4cc(C)cnc43)CCCC2)cc(O)c1=O` [Compound 894], the pEC50 in experiment [1] was more than 4.70. In addition, the pIC50 on EN PA is more than 7.00.

With `O=C1NCCCCCOc2cccc(c2)C2(CCCC2)Cn2cc(O)c(=O)c1n2` [Compound 895], in experiment [1], the pEC50 is more than 4.70. The pIC50 at EN PA is more than 7.00.

For `CNC(=O)c1nn(CC2(n3c4ccccc4c4ccccc43)CCCC2)cc(O)c1=O` [Compound 896], the pEC50 in experiment [1] was more than 4.70. In addition, the pIC50 at EN PA was more than 7.00.

Turning to `CNC(=O)c1nn(CC2(c3ccc4c(C)cccc4c3)CCCC2)cc(O)c1=O` [Compound 897], the pEC50 in experiment [1] was more than 4.70. In addition, the pIC50 on EN PA was more than 7.00.

For the compound `CNC(=O)c1nn(CC2(n3cc(C)c4cc(Cl)ccc43)CCCC2)cc(O)c1=O` [Compound 898], the pEC50 in experiment [1] was more than 4.70. Besides, the pIC50 on EN PA is more than 7.00.

In the case of `CNC(=O)c1nn(CC2(n3cc(Cl)c4cc(Cl)ccc43)CCCC2)cc(O)c1=O` [Compound 899], the pEC50 in experiment [1] was more than 4.70. Further, the pIC50 on EN PA is more than 7.00.
